According to patent US20090304756A1, “Method for the Encapsulation and Controlled Release of Poorly Water-Soluble (Hyprophobic) Liquid and Solid Active Ingredients” (priority 2005, published 2009):

Assays:
[1] = Amount of imidacloprid in particles, release into excess methanol with UV/vis analysis of supernatant; assay type: physicochemical; settings: silica templates 5 μm, pore 6 nm, PSS/PAH coated; released in large excess of methanol
Protocol: 25 mg of the somewhat water-soluble active ingredient imidacloprid were dissolved in 3 ml of acetone, and 100 mg of spherical, porous silica templates (diameter 5 μm, pore size 6 nm) were added. After incubation for 30 min, water was added stepwise until the solution reached saturation of imidacloprid, evident from further considerable cloudiness. The supernatant was centrifuged off and the particles were suspended with 1% SDS solution. In this connection, here and in all of the following washing and coating solutions, imidacloprid saturated solutions were used in order to prevent a dissolving out from the particles. After the coating with PSS and PAH (analogously to Example 1), separate particles filled with 15% m/m (mass of imidacloprid/mass of particles) were obtained (FIG. 3). The amount of imidacloprid was determined by releasing the active ingredient in a large excess in methanol with subsequent UV/vis spectroscopic analysis of the supernatant.

[2] = Perylene concentration in particle interior by confocal fluorescence microscopy; assay type: physicochemical; settings: C18 silica templates 5 μm, pore 6 nm, PAH/PSS LbL coated; self-quenching may feign lower concentration
Protocol: 12.5 mg of the model dye perylene were dissolved in 6 ml of chloroform. A suspension of 100 mg of spherical, porous silica templates (diameter 5 μm, pore size 6 nm) in 1 ml of chloroform was added thereto. The surface of the templates is hydrophobically modified with C18 alkyl chains (RP 18, chromatography material). The solvent was evaporated at 40° C. in a drying cabinet with stirring. The powder which remained was resuspended in water with the help of 1% sodium dodecyl sulphate (SDS). […] Besides the fluorescence of the perylene in the particles, a few larger (and lighter) crystals of the pure dye can also be seen which no longer arise when using smaller fill amounts. The SDS solution was centrifuged off and the particles were incubated with 500 μl of a solution of 1 g/l Cy5 labelled poly(allylamine hydrochloride) (PAH-Cy5, MW 70000 g/mol), pH 6.5 and 0.5 M NaCl for 20 min with brief application of ultrasound. After washing the particles three times with water, 500 μl of a solution of 1 g/l of poly(sodium 4-styrenesulphonate) (PSS, MW 70000 g/mol) in 0.5 M NaCl with pH 6.1 are added. […]
The concentration of the perylene in the interior of the particles was determined via the fluorescence by confocal microscopy by reference to comparison solutions. […]

Compound | filling (mass of imidacloprid/mass of particles) [1] | concentration of perylene in the interior of the particles [2]
O=[N+]([O-])NC1=NCCN1Cc1ccc(Cl)nc1 [imidacloprid] | 15 % m/m | –
c1cc2cccc3c4cccc5cccc(c(c1)c23)c54 [perylene] | – | 8.5 mg of perylene per 100 mg of particles
